What follows are molecules tested against T1, α5β3γ2 GABAA receptors (Ltk cell membranes) (Homo sapiens, UniProt P18507+P31644) (assay: Binding activity of test compounds on GABAAR: inhibition of [3H]Ro15-1788 binding). Conditions: not given.
T1 construct: membranes
T1 sequence (P31644 32-462): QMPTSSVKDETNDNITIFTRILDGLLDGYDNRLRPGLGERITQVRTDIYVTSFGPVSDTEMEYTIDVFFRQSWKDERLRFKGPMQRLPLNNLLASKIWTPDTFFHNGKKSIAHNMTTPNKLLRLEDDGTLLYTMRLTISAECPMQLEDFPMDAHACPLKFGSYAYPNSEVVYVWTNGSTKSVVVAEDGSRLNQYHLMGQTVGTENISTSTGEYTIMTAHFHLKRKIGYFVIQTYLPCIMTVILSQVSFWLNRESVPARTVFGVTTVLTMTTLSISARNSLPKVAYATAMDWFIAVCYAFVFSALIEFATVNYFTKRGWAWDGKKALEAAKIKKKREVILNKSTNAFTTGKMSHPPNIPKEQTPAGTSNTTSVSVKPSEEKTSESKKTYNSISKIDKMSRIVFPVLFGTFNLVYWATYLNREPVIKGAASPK
T1 sequence (P28472 26-473 partner): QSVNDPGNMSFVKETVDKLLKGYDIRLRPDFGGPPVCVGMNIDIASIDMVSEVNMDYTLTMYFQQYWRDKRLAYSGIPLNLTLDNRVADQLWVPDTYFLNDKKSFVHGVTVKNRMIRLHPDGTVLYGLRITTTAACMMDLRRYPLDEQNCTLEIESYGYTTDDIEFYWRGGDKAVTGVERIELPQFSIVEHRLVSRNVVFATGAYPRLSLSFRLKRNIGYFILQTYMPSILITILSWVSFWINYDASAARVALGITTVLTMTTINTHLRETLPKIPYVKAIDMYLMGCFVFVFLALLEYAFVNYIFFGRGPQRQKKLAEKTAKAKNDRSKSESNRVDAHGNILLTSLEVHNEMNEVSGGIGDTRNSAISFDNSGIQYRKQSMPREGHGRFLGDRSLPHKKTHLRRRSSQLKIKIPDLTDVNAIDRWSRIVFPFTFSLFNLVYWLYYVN
T1 sequence (P18507 40-475): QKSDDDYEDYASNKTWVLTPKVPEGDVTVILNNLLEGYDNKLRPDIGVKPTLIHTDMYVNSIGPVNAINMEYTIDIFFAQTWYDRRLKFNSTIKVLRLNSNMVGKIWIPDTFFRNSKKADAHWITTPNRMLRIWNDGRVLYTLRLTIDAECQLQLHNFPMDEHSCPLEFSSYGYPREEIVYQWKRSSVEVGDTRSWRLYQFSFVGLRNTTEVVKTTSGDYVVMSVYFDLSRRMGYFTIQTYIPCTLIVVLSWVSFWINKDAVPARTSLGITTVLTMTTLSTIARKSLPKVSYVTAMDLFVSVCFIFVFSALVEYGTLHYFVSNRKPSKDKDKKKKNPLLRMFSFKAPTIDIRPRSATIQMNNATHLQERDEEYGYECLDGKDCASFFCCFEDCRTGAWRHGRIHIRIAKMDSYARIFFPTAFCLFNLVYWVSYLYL
Experimental: Tissue culture and Membrane Preparation: The binding was performed on Ltk cells stably expressing GABAA receptors: α1β1γ2, α2β3γ2, α3β3γ2 and α5β3γ2 (provided by Merck Co., NJ, USA). Cells were seeded in 100 mm culture plates in DMEM/F12 medium containing 10% serum and antibiotics in 5% CO2 and allowed to grow for 1-2 days. GABAAR expression was then induced by dexamethasone as follows: 0.5 μM for 1 day for α5 containing and 2μM for 3 days for α1, α2 and α3 containing GABAARs. After induction, cells were collected by scraping into Dulbecco's Phosphate buffered saline (DPBS, pH 7.4, Invitrogen, Carlsbad, Calif., USA) and centrifuged at 150×g for 10 min. The pellet was washed twice by re-suspension and centrifugation. The cell pellets from at least 5 different preps were combined, suspended in the binding assay buffer (50 mM KH2P4; 1 mM EDTA; 0.2 M KCl, pH 7.4) and membranes prepared by sonication (3-5 times, 30 sec) using Branson Sonifier 150 (G.Heinmann, Germany). Protein content was determined using BCA assay (Bio-Rad Labs, Reinach, Switzerland) with Bovine Serum Albumin (Sigma Aldrich, St. Louis, Mo., USA) as the standard. Aliquots were prepared and stored at −20° C. for further use in binding assays.
Ligand Binding: Saturation binding curves were obtained by incubating membranes with increasing concentrations (0.01-8 nM) of [^3H]Ro15-1788 (Flumazepil, 75-85 Ci/mmol, PerkinElmer, MA, USA), with nonspecific binding measured in the presence of 10 μM diazepam.
All binding assays were performed for 1 h at 4° C. in assay buffer. The total assay volume was 0.5 ml containing 0.2 mg/ml protein for α5 and 0.4 mg/ml for α1, α2, and α3 containing GABAAR membranes. Incubations were terminated by filtration through GF/B filters using a 24-Cell Harvestor (Brandel, Gaithersburg, Md., USA) followed by 3 washes with ice-cold assay buffer. Filters were transferred to scintillation vials, 5 ml scintillation liquid added, vortex-mixed and kept in dark. Next day, radioactivity was obtained using a scintillation counter (Beckman Coulter, Brea, Calif., USA). All assays were performed in triplicate.
Data Analyses: Saturation and inhibition curves were obtained using GraphPad Prism software (GraphPad Software, Inc., CA, USA).
COCc1nnc2n1Cc1c(C3=NCC(C)(C)CO3)ncn1-c1ccc(Cl)cc1-2 [Compound 239] was tested, and the Ki was > 1000 nM.

Same assay, conditions: GABA α5 Binding Ki Values, inhibition of [3H]Ro15-1788 binding; reported as ranges
In the case of COc1ccc2c(c1)-n1nnc(Cc3cccc(Cl)c3)c1Cc1c(C#N)ncn1-2 [Compound 209], the Ki is reported as < 100 nM.
COc1ccc2c(c1)-n1nnc(Cc3cccnc3)c1Cc1c(C#N)ncn1-2 [Compound 210] was tested, and the Ki was < 100 nM.
With CCOCc1nnc2n1Cc1c(Br)ncn1-c1ccc(Cl)cc1-2 [Compound 216] the Ki was < 100 nM.
In the case of COCc1nnc2n1Cc1c(Br)ncn1-c1ccc(Cl)cc1-2 [Compound 217], the Ki is reported as < 100 nM.
With C#Cc1ncn2c1Cc1c(C(=O)c3ccc(F)cc3)nnn1-c1cc(OC)ccc1-2 [Compound 218] the Ki was < 100 nM.
With C#Cc1ncn2c1Cc1c(C(=O)c3ccc(Cl)cc3)nnn1-c1cc(OC)ccc1-2 [Compound 219] the Ki was 100 to 1000 nM.
C=Cc1ncn2c1Cc1c(Cc3ccccc3)nnn1-c1cc(OC)ccc1-2 [Compound 220] gave a Ki of 100 to 1000 nM.
With C=Cc1ncn2c1Cc1c(Cc3ccc(C)cc3)nnn1-c1cc(OC)ccc1-2 [Compound 221] the Ki was > 1000 nM.
COc1ccc2c(c1)-n1nnc(COc3ccc(F)cc3)c1Cc1c(C#N)ncn1-2 [Compound 222] was tested, and the Ki was < 100 nM.
With COc1ccc2c(c1)-n1nnc(COc3ccccc3F)c1Cc1c(C#N)ncn1-2 [Compound 223] the Ki was < 100 nM.
With COc1ccc2c(c1)-n1nnc(COc3ccccc3)c1Cc1c(C#N)ncn1-2 [Compound 224] the Ki was < 100 nM.
In the case of COc1ccc2c(c1)-n1nnc(COc3cccc(Br)c3)c1Cc1c(C#N)ncn1-2 [Compound 225], the Ki is reported as < 100 nM.
In the case of N#Cc1ncn2c1Cc1c(COc3ccccc3)nnn1-c1cc(Cl)ccc1-2 [Compound 226], the Ki is reported as < 100 nM.
With N#Cc1ncn2c1Cc1c(COc3cccc(F)c3)nnn1-c1cc(Cl)ccc1-2 [Compound 227] the Ki was < 100 nM.
With Fc1ccc2c(c1)-n1cnc(Br)c1Cc1c(Cc3ccccc3)nnn1-2 [Compound 229] the Ki was > 1000 nM.
CC(C)c1nc(-c2ncn3c2Cc2c(C(=O)c4ccc(F)cc4)nnn2-c2ccc(F)cc2-3)no1 [Compound 230] was tested, and the Ki was < 100 nM.
In the case of CC(C)c1nc(-c2ncn3c2Cc2c(Cc4ccc(F)cc4)nnn2-c2ccc(F)cc2-3)no1 [Compound 231], the Ki is reported as > 1000 nM.
In the case of COc1ccc2c(c1)-c1nnc(COc3ccccc3)n1Cc1c(Br)ncn1-2 [Compound 232], the Ki is reported as < 100 nM.
For COCc1nnc2n1Cc1c(-c3cc(C)no3)ncn1-c1ccc(Cl)cc1-2 [Compound 233], the Ki was < 100 nM.
In the case of COc1ccc2c(c1)-c1nnc(COc3cccnc3)n1Cc1c(Br)ncn1-2 [Compound 235], the Ki is reported as < 100 nM.
With C#Cc1ncn2c1Cn1c(COc3ccccc3)nnc1-c1cc(OC)ccc1-2 [Compound 236] the Ki was < 100 nM.
For COCc1nnc2n1Cc1c(C3=NCCCO3)ncn1-c1ccc(Cl)cc1-2 [Compound 237], the Ki was 100 to 1000 nM.
In the case of COCc1nnc2n1Cc1c(C3=NCCO3)ncn1-c1ccc(Cl)cc1-2 [Compound 238], the Ki is reported as < 100 nM.
Molecule COCc1nnc2n1Cc1c(C3=N[C@@H](C(C)C)CO3)ncn1-c1ccc(Cl)cc1-2 [Compound 240] has a Ki of 100 to 1000 nM.
C#Cc1ncn2c1Cn1c(COc3cccnc3)nnc1-c1cc(OC)ccc1-2 [Compound 241] was tested, and the Ki was < 100 nM.
With COCc1nnc2n1Cc1c(C3=NC(c4ccccc4)CO3)ncn1-c1ccc(Cl)cc1-2 (stereo not shown) [Compound 242] the Ki was < 100 nM.
With COCc1nnc2n1Cc1c(-c3nc(C)co3)ncn1-c1ccc(Cl)cc1-2 [Compound 244] the Ki was < 100 nM.
COCc1nnc2n1Cc1c(-c3nc(-c4ccccc4)co3)ncn1-c1ccc(Cl)cc1-2 [Compound 245] was tested, and the Ki was < 100 nM.
Molecule COCc1nnc2n1Cc1c(-c3nc(C(C)C)co3)ncn1-c1ccc(Cl)cc1-2 [Compound 246] has a Ki of 100 to 1000 nM.
With CNC(=O)c1nnn2c1Cc1c(Br)ncn1-c1ccc(OC)cc1-2 [Compound 247] the Ki was 100 to 1000 nM.
For COc1ccc2c(c1)-n1nnc(C(=O)N3CCCC3)c1Cc1c(Br)ncn1-2 [Compound 248], the Ki was 100 to 1000 nM.
COCc1nnc2n1Cc1c(-c3ncco3)ncn1-c1ccc(Cl)cc1-2 [Compound 249] was tested, and the Ki was < 100 nM.
COc1ccc2c(c1)-n1nnc(CN3CCCC3)c1Cc1c(C#N)ncn1-2 [Compound 250] was tested, and the Ki was > 1000 nM.
